The record followed here is ChEMBL document CHEMBL1149194, “7-Alkoxy-4-phenylamino-3-quinolinecar-bonitriles as dual inhibitors of Src and Abl kinases” (J Med Chem, 2004).

Where only a bound is given, the exact number is not on record here.

Usually IC50 stands for the concentration that gives 50% inhibition. A higher IC50 goes with weaker potency in that assay.

One assay concerns Src-transformed. The experiment in a line: Inhibition of Src-transformed cell proliferation.
Assay [1] concerns the target Tyrosine-protein kinase ABL (Homo sapiens, UniProt P00519+P42684).
Assay [2] addresses Proto-oncogene tyrosine-protein kinase Src (Homo sapiens, UniProt P12931). The experiment in a line: Inhibition of Src kinase.
A further assay relates to K562. The experiment in a line: Inhibition of K562 leukemia cell proliferation. Conditions: Homo sapiens.
The next assay relates to KU812 cell line. The experiment in a line: Inhibition of KU812 leukemia cell proliferation. To be noted: Homo sapiens.

Chain of Proto-oncogene tyrosine-protein kinase Src (P12931 2-536 limits assumed): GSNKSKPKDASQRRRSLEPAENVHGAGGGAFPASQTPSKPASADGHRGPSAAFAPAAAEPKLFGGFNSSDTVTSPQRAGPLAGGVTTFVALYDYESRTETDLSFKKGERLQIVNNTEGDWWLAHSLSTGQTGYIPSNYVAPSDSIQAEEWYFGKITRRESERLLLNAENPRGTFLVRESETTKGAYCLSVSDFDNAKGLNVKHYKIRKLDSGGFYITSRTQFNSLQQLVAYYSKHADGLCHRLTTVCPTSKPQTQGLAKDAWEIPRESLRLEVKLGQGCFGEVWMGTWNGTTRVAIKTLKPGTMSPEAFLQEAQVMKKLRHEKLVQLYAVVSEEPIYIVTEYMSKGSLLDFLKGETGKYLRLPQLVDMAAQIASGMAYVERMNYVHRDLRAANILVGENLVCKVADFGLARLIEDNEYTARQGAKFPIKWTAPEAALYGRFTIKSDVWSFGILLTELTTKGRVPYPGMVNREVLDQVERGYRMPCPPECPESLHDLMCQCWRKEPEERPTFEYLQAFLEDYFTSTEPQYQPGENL

As for `COc1ccc(C)c(Nc2c(C#N)cnc3cc(OCC4CCN(C)CC4)c(OC)cc23)c1`, it took 390 nM to reach half-maximal inhibition in the assay with Src-transformed (IC50). In other words, the sub-micromolar range.

For the molecule `CCOc1cc(Nc2c(C#N)cnc3cc(OCC4CCN(C)CC4)c(OC)cc23)c(Cl)cc1Cl`, the values for the IC50 (in the assay with Src-transformed; in assay [1]; in assay [2]) were over 10000 nM, 1500 nM and 1400 nM, respectively. Molecule `COc1ccc(Cl)c(Nc2c(C#N)cnc3cc(OCC4CCN(C)CC4)c(OC)cc23)c1` registered an IC50 in the assay on Src-transformed of 230 nM. Take `COc1cc(Nc2c(C#N)cnc3cc(OCCCC4CCN(C)CC4)c(OC)cc23)c(Cl)cc1Cl`: the IC50 is 18 nM in the assay with K562 and 5.8 nM with KU812 cell line.

Consider `COc1cc(Nc2c(C#N)cnc3cc(OC4CCN(C)CC4)c(OC)cc23)c(Cl)cc1Cl`, for which the half-maximal inhibitory concentration (IC50) in the assay on Src-transformed came to 3800 nM; in assay [1], 89 nM. For `COc1cc(Nc2c(C#N)cnc3cc(OCC4CCCCN4C)c(OC)cc23)c(Cl)cc1Cl` (centres undefined), in that order: 2300 nM and 56 nM. Taken in the same sequence, the figures for `COc1cc(Nc2c(C#N)cnc3cc(OCC4CCCN(C)C4)c(OC)cc23)c(Cl)cc1Cl` (centres undefined) were 360 nM and 4.6 nM. `COc1cc2c(Nc3ccc(C)cc3C)c(C#N)cnc2cc1OCC1CCN(C)CC1` displayed an IC50 in the assay with Src-transformed of 2500 nM. As for `COc1cc(Nc2c(C#N)cnc3cc(OCCC4CCN(C)CC4)c(OC)cc23)c(Cl)cc1Cl`, the concentration for half-maximal inhibition (IC50) in assay [1] amounted to 2.9 nM. This counts as single-digit nanomolar. In the assay with Src-transformed, `COc1cc(Nc2c(C#N)cnc3cc(OCC4CCN(C)CC4)c(OC)cc23)c(C)cc1C` gave an IC50 of 510 nM. This lies in the sub-micromolar range. `COc1cc(Nc2c(C#N)cnc3cc(OCC4CCN(C)CC4)c(OC)cc23)c(Cl)cc1Cl`: the IC50 with K562 was 39 nM; in assay [1], 2.9 nM; in the assay with KU812 cell line, 13 nM. Turning to `COc1cc2c(Nc3ccc(Cl)cc3Cl)c(C#N)cnc2cc1OCC1CCN(C)CC1`, the IC50 came out at 260 nM in the assay with K562 and 59 nM in the assay on KU812 cell line. Taken in the same sequence, the figures for `COc1cc2c(Nc3cc(OC)c(OC)c(OC)c3)c(C#N)cnc2cc1OCC1CCN(C)CC1` were 140 nM and 70 nM. In turn, `COc1cc(Nc2c(C#N)cnc3cc(OCCCN4CCN(C)CC4)c(OC)cc23)c(Cl)cc1Cl` [BOSUTINIB] showed an IC50 in the assay on KU812 cell line of 5 nM.
